In patent publication US20080153792A1, “Drug Identification and Treatment Method” (priority 2006, published 2008):
pIC50: −log10 of the molar value.

What was measured:
[1] = tested on: mice, LPS induced lung injury; test: lung injury by sublethal LPS to trachea and lungs, BAL cell count; assay type: in vivo, mouse; conditions: oral gavage 24 h before and 1 h after 100 μg LPS; 48 hours
Experimental: In another assay, the capacity of 16α-bromoepiandrosterone and 3β,16α-dihydroxy-17-oxoandrostane to protect against lung injury induced by exposure to a sublethal amount of LPS in mice was shown. In this assay, the compounds, sterile saline (negative control) or vehicle (vehicle control) were administered to groups of 5 mice by oral gavage at 24 hours before and 1 hour after administration of 100 μg of LPS to the trachea and lungs of animals under light anesthesia. At 48 hours the animals were sacrificed and samples were obtained from the lungs of the animals by bronchiolar alveolar lavage (BAL). The numbers of cells in the BAL fluid were counted, with high numbers of cells showing lung inflammation and damage. In this assay, cells that mediate inflammation and lung damage infiltrate into the lungs in response to the presence of the LPS. In the negative control and vehicle control groups, the BAL fluid contained about 6×10^7 cells/mL. […] Other compounds, e.g., 17α-ethynylandrost-5-ene-3β,7β,17β-triol or 17β-aminoandrost-5-ene-3β-ol, can be characterized in a similar manner.

[2] = tested on: mice given a lethal amount of LPS; test: lethal shock protocol, lethal amount of bacterial LPS; assay type: in vivo, mouse; conditions: for survival 72 hours after LPS: first protocol
Experimental: Treatment of lethal inflammation/shock. Two compounds, 16α-bromoepiandrosterone (3β-hydroxy-16α-bromoandrostane-17-one) and 3β,16α-dihydroxy-17-oxoandrostane, were used in a lethal shock protocol. In one protocol, 3 mg of 16α-bromoepiandrosterone was administered to one group of animals by oral gavage, while another group received 3 mg of 16α-bromoepiandrosterone by subcutaneous injection. A group of control animals received a placebo control. In this protocol, the 16α-bromoepiandrosterone was administered to mice at 24 hours before and at 1 hour after administration of a lethal amount of bacterial lipopolysaccharide (LPS). By the end of the observation period, 72 hours after LPS administration, none of the vehicle treated placebo control animals had survived, while 65% of animals that received 16α-bromoepiandrosterone by oral administration survived. 50% of the animals that received 16α-bromoepiandrosterone by subcutaneous injection survived. Animals that survived for 72 hours all recovered from the LPS exposure.
In a second assay, 16α-bromoepiandrosterone or 3β,16α-dihydroxy-17-oxoandrostane was administered to mice by oral gavage at 24 hours before and 1 hour after administration of a lethal amount of LPS. A vehicle treated group of animals was used as the placebo control.

[3] = tested on: Pseudomonas aeruginosa; test: clearance of chronic lung infection in CFTR mice; assay type: in vivo; conditions: 40 mg/kg; day 10; p=<0.04 vs vehicle
Experimental: Clearance of bacteria from lung tissue. The capacity of 16α-bromoepiandrosterone to clear a Pseudomonas aeruginosa infection from lung tissue was shown using a previously published protocol, A. van Heeckeren et al., J. Clin. Invest., 100(11):2810-2815 […]; A. van Heeckeren et al., Am. J. Respir. Crit. Care Med., 161:271-279 2000. The protocol was conducted in CFTR mice, which are used as an animal model for human cystic fibrosis, S. D. Freedman et al., Proc. Natl. Acad. Sci. USA, 96(24):13995-14000 1999; W. Zeng et al., Am. J. Physiol. Cell. Physiol. […] Establishment of chronic P. aeruginosa infection using agarose beads containing bacteria (50 μL containing about 6.1×10^4 CFU/animal) was published earlier, J. R. Starke et al., Pediatr. Res., 22:698-702 1987. Two groups of mice (n=9 for each group) were treated with 40 mg/kg of 16α-bromoepiandrosterone or vehicle (control) and the bacterial burden in the lungs of the animals was determined at 10 days after introduction of the agarose beads into the lung.

[4] = tested on: CD4^+CD25^+ T regulatory cells; test: CD4+CD25+ T regulatory cells after adoptive transfer of CD4+CD25- T cells; assay type: in vivo, mouse; conditions: 1 mg/animal/day s.c. for 14 days
Experimental: Inhibition of the generation of CD4^+CD25^+ T regulatory cells or their activity in vivo. Purified CD4^+CD25^− T cells (5×10^6 cells) from congenic B6.5JL mice (CD45.1) per group were adoptively transferred into each of five B6 mice (CD45.2). The purified CD4^+CD25^− T cells were obtained by fluorescence activated cell sorting (FACS) of the donor cells at least twice. Vehicle (0.1% carboxymethylcellulose, 0.9% saline, 2% tween 80, 0.05% phenol) or 16α-bromoepiandrosterone in vehicle (1 mg/animal/day in 100 μL vehicle) was injected subcutaneously before transfer of the cells from the CD45.1 donor animals and the injections were continued daily for 14 days. Thymus, lymph nodes and spleens were collected from the animals at day 15. Samples of thymus, lymph node and spleen were obtained from individuals, and the cells were labeled with fluorescent antibody that bound to CD4, CD25, CD103 or Foxp3. The cells were then analyzed by flow cytometry to enumerate the numbers of the various cell types. The remainder of cells from lymph nodes and spleen of each treatment group were pooled, pre-enriched for CD4^+CD25^+ cells and then analyzed for CD4^+CD25^+ that arose from the host (endogenous CD45.2 cells) and from donor cells (CD45.1 cells that converted from the CD4^+CD25^− donor phenotype to the CD4^+CD25^+ phenotype after residing in vivo for 15 days). The cells were analyzed by cell sorter. To test for regulatory function, varying numbers of purified converted CD45.1 or endogenous CD45.2 CD4^+CD25^+ cells were co-cultured with 2000 CD4^+CD25^− responder cells, 1×10^5 irradiated spleen cells as antigen presenting cells, and […] of anti-CD3 antibody. Fresh CD4^+CD25^+ cells were used as controls. Proliferation was determined by measurement of ^3H-thymidine uptake 4 days after initiation of culture.

[5] = tested on: γ-interferon production by human whole blood; test: γ-interferon production in human whole blood exposed to LPS; assay type: cell-based; conditions: LPS 24 hours; 16α-bromoepiandrosterone at 100 ng/mL
Experimental: Anti-inflammation activity in human cells in vitro. […] The amount of γ-interferon was measured in the growth medium when the cells had been incubated in the presence of LPS for 24 hours.

[6] = tested on: NF-κB; test: NF-κB-bla THP-1 β-lactamase reporter assay; assay type: cell-based, human
[7] = tested on: osteoblasts and osteocytes in murine vertebral bone; test: osteoblast and osteocyte apoptosis in ovariectomized mice (TUNEL); assay type: in vivo, mouse; conditions: ovariectomized Swiss Webster mice
Source text: The degree of apoptosis of osteoblasts and osteocytes in murine vertebral bone as a function of estrogen deficiency was examined. Swiss Webster mice (four months old) were ovariectomized. Twenty-eight days later, the animals were sacrificed, vertebrae were isolated, fixed and embedded, and then undecalcified in methacrylate.

[8] = tested on: CF-1 mice, hemorrhagic shock; test: hemorrhagic shock and ischemia with abdominal surgery; assay type: in vivo, mouse; conditions: 2 mg in resuscitation fluid; vehicle control 1/15
Experimental: The effect of compounds on hemorrhagic shock and ischemia was examined in another protocol. CF-1 mice at an age of 6-8 months were anesthetized using methoxyfluorothane and prepared for abdominal surgery. Each mouse was tested for the level of respiration, eye blink response and response to a skin pinch to ensure a level of anesthesia appropriate for surgery. The duration of abdominal surgery was approximately two hours, during which time 35-40% of the animal's blood volume is removed over a […]. The removal of blood in a controlled manner simulates the effect of hemorrhagic shock. A slow intravenous infusion of the removed blood and a 2× volume of resuscitation fluid (lactated Ringers solution) into a central vein was made. The resuscitation fluid was supplemented with either 2 mg dehydroepiandrosterone-3β-sulfate or the excipient as a placebo. The peritoneum and overlying skin were sutured separately. Animals were maintained at 38°-39° C. until recovery is complete. Under these conditions, most of the placebo-treated animals died within 24-48 hours. […] Mesenteric lymph nodes (MLN) were removed and cultured on blood agar plates and the number of CFUs counted following culturing. The liver was removed and the amount malondialdehyde was measured.

[9] = metabolic stability in liver microsomes: mouse; conditions: 10 min
Experimental: (§1) The protocol was performed as follows. […] (2) Set up samples as follows. […] (4) The internal standard/acetonitrile solution.

[10] = metabolic stability in liver microsomes: human; conditions: 10 min
Experimental: as §1

[11] = tested on: female SJL mice, EAE; test: experimental autoimmune encephalomyelitis (EAE), PLP-induced, Example 23; assay type: in vivo, mouse; conditions: 0.1 mg q.d. po from clinical onset
[12] = tested on: NF-κB in spleen cells of ICR mice; test: activated NF-κB in spleen cell nuclei after LPS, Example 8; assay type: in vivo, mouse; conditions: about 40 mg/kg i.p. 24 h before and 1 h after LPS; spleens 1.5 hours after LPS
Experimental: The capacity of selected compounds to treat LPS induced shock/inflammation in mice was examined by a protocol similar to the protocol described above. Five groups of three ICR mice weighing about 30 g were each treated by intraperitoneal injection with 120 μL vehicle (30% sulfobutylether-cyclodextrin in water), androst-5-ene-3α,7β,16α,17β-tetrol in vehicle, androst-5-ene-3β,4β,16α,17β-tetrol in vehicle or 4β-acetoxyandrost-5-ene-3β,16α,17β-triol in vehicle. All drug and vehicle formulations were solutions, not suspensions. The sulfobutylether-cyclodextrin was obtained commercially (Captisol™, www.cyclexinc.com). There were two vehicle control groups one group received vehicle alone and the other received vehicle plus LPS. […] Drug was administered at about 40 mg/kg (1.2 mg drug/animal for each administration of the drugs). Spleens were harvested from the animals at 1.5 hours after injection of LPS and spleen cells were lysed and assayed for activated NF-κB by isolating nuclei from spleen cells and measuring NF-κB from the lysed nuclei. […] The level of activated NF-κB in spleen cells from the animals that were treated with vehicle and no LPS, was essentially the same as the activated NF-κB in spleen cells from drug treated animals.

[13] = other protocols: degree of sulfation and glucuronidation
[14] = tested on: MG-63 cells; test: reversal of glucocorticoid effects in MG-63 osteosarcoma cells; assay type: cell-based, human; conditions: 10 nM compound

What does the source list for `C[C@]12CC[C@H](O)C[C@@H]1CC[C@@H]1[C@@H]2CC[C@]2(C)C(=O)[C@H](Br)C[C@@H]12` [16α-bromoepiandrosterone]?
cell counts in the BAL fluid [1]: about 4.4×10^7 cells/mL; survival 72 hours after LPS ([2]; 3 mg by oral gavage 24 h before and 1 h after LPS): 65%; survival 72 hours after LPS ([2]; 3 mg by subcutaneous injection 24 h before and 1 h after LPS): 50%; survival at 72 hours ([2]; second assay, oral gavage 24 h before and 1 h after LPS): 80%; bacterial burden in the lungs [3]: reduced; average donor CD45.1 CD4^+CD25^+ cell number in spleens ([4]; day 15, vehicle 1.97×10^5): 0.62×10^5 cells; average endogenous CD45.2 CD4^+CD25^+ cells in the thymus ([4]; day 15, vehicle 3.10×10^5): 1.59×10^5; average endogenous CD45.2 CD4^+CD25^+ cell number in spleens ([4]; day 15, vehicle 9.54×10^6): 5.49×10^6 cells; proportion of endogenous CD45.2 CD4^+CD25^+CD103^+ Treg cells in spleens ([4]; vehicle 13.85%): 13.40%; average of donor CD45.1 CD4^+CD25^+CD103^+ cells of total donor CD4^+CD25^+ cells in spleens ([4]; vehicle 29.06%): 9.63%; production of γ-interferon [5]: Reduced production; maximum NF-κB inhibition ([6]; this protocol): 100%

Which melting point does the source give for `C[C@]12CC[C@H]3[C@@H](CCC4C[C@H](O)[C@@H](O)C[C@@]43C)[C@@H]1C[C@@H](O)[C@@H]2O` (stereo partly drawn) [androstane-2β,3α,16α,17β-tetrol] here?
Its melting point is 260 to 263 °C.

What about the pIC50 ([6]; Homo sapiens, THP-1, read-out: IC50, this protocol) of the same compound?
Its pIC50 is less than 5.00.

For `C[C@]12CC[C@H]3[C@@H](CCC4=C[C@H](O)CC[C@@H]43)[C@@H]1CC[C@@H]2O` [4-estrene-3α,17β-diol], which “osteoblast and osteocyte apoptosis” value [7] is on record?
The value was “reduce apoptosis”.

For `C[C@]12CC[C@H](OS(=O)(=O)O)CC1=CC[C@@H]1[C@@H]2CC[C@]2(C)C(=O)CC[C@@H]12` [dehydroepiandrosterone-3β-sulfate], which survival [8] is on record?
The survival was 15/15.

Which results are given for `C[C@]12CC[C@H]3[C@@H]([C@@H](O)C=C4C[C@H](O)CC[C@@]43C)[C@@H]1C[C@@H](O)[C@@H]2O` [androst-5-ene-3α,7β,16α,17β-tetrol]?
parent remaining mouse microsomes [9]: 100% (10 min); parent remaining human microsomes [10]: 100% (10 min); course of EAE compared to vehicle-treated mice [11]: very similar to that observed in the vehicle-treated mice; decrease of NF-κB activation compared to LPS+vehicle control group [12]: about 50%; degree of sulfation and degree of glucuronidation compared to diols [13]: low; osteoprotegerin levels in the presence of 30 nM dexamethasone [14]: normal osteoprotegerin levels
